{"source": "patent US4746663A", "about": "“Pyrazolo[4,3-d]pyrimidine derivative, process for its production, and antihyperlipidemic or antiatherosclerotic agent containing it” (Nissan Chemical Industries Ltd., priority 1985, dated 1988)", "key": {"[1]": {"test_system": "serum lipid", "details": "Science, 193, 903 (1976); J. Lipid Res., 12, 596 (1971); cited from earlier work"}, "[2]": {"test_system": "emulsion-induced hyperlipidemic rats", "assay": "Test 1: antihyperlipidemic activity in emulsion-induced hyperlipidemic rats", "assay_type": "in vivo, Male S.D. rats", "details": "via stomach tube daily, 3 days; for Reduction rate of serum Chol. / Increase rate of serum HDLChol.: vs control group; for Degree of hepatomegaly (change rate of the liver weight): liver weight per 100 g body weight vs control group", "protocol": "The antihyperlipidemic activity in emulsion-induced hyperlipidemic rats:\nMale S.D. rats weighing 80-90 g (4 weeks old) were used. They were divided into groups of 5 to 6 rats each. The test compounds suspended in 0.5% CMC-Na(carboxymethyl cellulose sodium salt) were given to the rats in a daily dose of 4 ml/kg via stomach tube every 10:00 a.m. After 30 min., lipids emulsion having the following composition was orally given to the rats in an amount of 2.5 ml per rat.\nDuring the experimental period of 3 days, the rats were fed on a standard commercial diet and water ad libitum. […] The total cholesterol and HDL cholesterol were measured.\nThe weight of the liver was measured. To the control group, only the aqueous CMC-Na solution and the lipids emulsion were given.\nThe fractionation of lipoproteins was conducted by a dextran sulfate-MgCl2 precipitation method.\nCholesterol in serum was measured by means of a cholesterol measuring kit (Cholesterol C-Test Wako, manufactured by Wako Junyaku Co., Ltd.), and cholesterol in HDL was measured by means of NC Hi-Set, manufactured by Nippon Chemiphar Co., Ltd.\nFurther, the reduction rate of Chol was calculated by the following equation. [formula] where A is the amount of serum Chol (mg/dl) of the control group, and B is the amount of serum Chol (mg/dl) of the group to which the therapeutic agent was administered.\nLikewise, the increase rate of HDL-Chol was calculated by the following equation. [formula] where C is the amount of serum HDL-Chol (mg/dl) of the control group, and D is the amount of serum HDL-Chol (mg/dl) of the group to which the therapeutic agent was administered.\nThe degree of hepatomegaly (i.e. the change rate of the liver weight) was calculated by the following equation. [formula] where E is the liver weight (g) per 100 g of the body weight of the control group, and F is the liver weight (g) per 100 g of the body weight of the group to which the therapeutic agent was administered."}, "[3]": {"details": "animal experiments; Cancer Res., 39, 3419 (1979); cited from earlier work"}, "[4]": {"details": "literature, in words; cited from earlier work"}, "[5]": {"assay": "Test 2: acute toxicity", "details": "mouse, in vivo, po, 1000 mg/kg in corn oil, male ddY mice, after seven days", "protocol": "The test compounds dissolved in corn oil were administered p.o. to male ddY mice. The acute toxicity was determined based on the mortality after seven days. In respect of the compounds of Examples 1 and 2 of the present invention, the mortality was 0% even at a dose of as high as 1000 mg/kg by oral administration."}, "[6]": {"details": "300 mg/kg, minus value represents a reduction rate"}}, "note": "Entries after “also recorded” stand apart in the source; their conditions may differ."}
{"smiles": "Nc1ncnc2[nH]ncc12", "note": "[1H-pyrazolo[3,4-d]pyrimidine-4-amine]", "values": [{"measurement": "function to reduce serum lipid", "setting": "[1]", "result": "function to reduce serum lipid"}]}
{"smiles": "CCOC(=O)C(C)(C)Oc1ccc(Cl)cc1", "note": "[Clofibrate, reference compound]", "values": [{"measurement": "Reduction rate of serum Chol.", "setting": "[2]; 300 mg/kg", "result": 35.6, "unit": "%"}, {"measurement": "Increase rate of serum HDLChol.", "setting": "[2]; [6]", "result": -18.2, "unit": "%"}, {"measurement": "Degree of hepatomegaly (change rate of the liver weight)", "setting": "[2]; 300 mg/kg", "result": 12.1, "unit": "%"}, {"measurement": "hepatic carcinoma", "setting": "[3]", "result": "brings about hepatic carcinoma"}, {"measurement": "subsidiary ill effects", "setting": "[4]", "result": "myalgia or hepatic insufficiency; also recorded: likely to lead to gallstone formation"}]}
{"smiles": "CCCCC/C=C\\C/C=C\\CCCCCCCCOc1c2ncnc(SCC(=O)O)c2nn1C", "note": "[Example 1, 2-Methyl-3-linoleyloxy-7-carboxymethylthio-pyrazolo[4,3-d]pyrimidine]", "values": [{"measurement": "Increase rate of serum HDLChol.", "setting": "[2]; 25 mg/kg", "result": 21.8, "unit": "%"}, {"measurement": "Reduction rate of serum Chol.", "setting": "[2]; 25 mg/kg", "result": 25.6, "unit": "%"}, {"measurement": "Degree of hepatomegaly (change rate of the liver weight)", "setting": "[2]; 25 mg/kg", "result": 6.0, "unit": "%"}, {"measurement": "Increase rate of serum HDLChol.", "setting": "[2]; 50 mg/kg", "result": 13.4, "unit": "%"}, {"measurement": "Reduction rate of serum Chol.", "setting": "[2]; 50 mg/kg", "result": 35.5, "unit": "%"}, {"measurement": "Degree of hepatomegaly (change rate of the liver weight)", "setting": "[2]; 50 mg/kg", "result": 7.6, "unit": "%"}, {"measurement": "Reduction rate of serum Chol.", "setting": "[2]; 300 mg/kg", "result": 73.5, "unit": "%"}, {"measurement": "Increase rate of serum HDLChol.", "setting": "[2]; [6]", "result": -17.7, "unit": "%"}, {"measurement": "Degree of hepatomegaly (change rate of the liver weight)", "setting": "[2]; 300 mg/kg", "result": 17.8, "unit": "%"}, {"measurement": "mortality at 168 h", "setting": "[5]", "result": 0, "unit": "%"}]}
{"smiles": "CCCCCCCCCCCCCCCCOc1c2ncnc(SCC(=O)O)c2nn1C", "note": "[Example 2, 2-Methyl-3-cetyloxy-7-carboxymethylthio-pyrazolo[4,3-d]pyrimidine]", "values": [{"measurement": "Reduction rate of serum Chol.", "setting": "[2]; 300 mg/kg", "result": 41.0, "unit": "%"}, {"measurement": "Increase rate of serum HDLChol.", "setting": "[2]; [6]", "result": 14.1, "unit": "%"}, {"measurement": "Degree of hepatomegaly (change rate of the liver weight)", "setting": "[2]; 300 mg/kg", "result": 9.2, "unit": "%"}, {"measurement": "mortality at 168 h", "setting": "[5]", "result": 0, "unit": "%"}]}
{"smiles": "O=C(O)c1cccnc1", "note": "[nicotinic acid]", "values": [{"measurement": "subsidiary ill effects", "setting": "[4]", "result": "flashing or gastroenteric troubles"}]}
